Consider one compound from patent publication US9738591B2, “Antimicrobial compounds” (priority 2009, dated 2017).

Data set [1] concerns sheep erythrocytes. The experiment in a line: Haemolysis of sheep erythrocytes. It is filed as cell-based. The conditions noted are these: for Average (SD) % haemolysis (n = 2): 2% sheep erythrocytes, 37° C., 2 h. The protocol:
As an indicator of toxicity to human cells, haemolysis experiments on sheep erythrocytes were undertaken with TSB007.
10 mg/ml stock solution of TSB007 was prepared in 100% DMSO. Master stock solutions of TSB007 (10 mg/ml) were made by dissolving 20 mg dehydrated compound in 2 ml 100% DMSO. They were stored in foil-covered glass bottles at −20° C. Master stocks stored in this way retained full antimicrobial activity for a minimum period of 6 weeks (results not shown).
Serial, 10-fold dilutions were performed in PBS to make solutions of 1000, 100, 10 and 1 mg/L of TSB007. In microcentrifuge tubes, 500 μl of each dilution was combined with 480 μl PBS and 20 μl washed sheep erythrocytes (100%) so that the final concentration of erythrocytes was 2% and the final concentrations of compound were 500, 50, 5 and 0.5 mg/L. Dilutions of DMSO without. TSB007 were prepared and tested as above to check for haemolysis due to DMSO. A 100% haemolysis control was prepared with 980 μl water and 20 μl erythrocyte suspension. A negative control was prepared with 980 μl PBS and 20 μl erythrocyte suspension. Dilutions and controls were prepared and tested in duplicate.
Tubes were incubated at 37° C. for 2 h on a rocker then centrifuged at 12 000 g for 5 mins. The OD540 of the supernatant was determined using 100 μl volumes transferred to a microtitre tray. % haemolysis was determined by blanking the OD against that of the negative control and presenting the resulting OD as a proportion of the OD of the positive control (blanked with water).

For data set [2], the system named is Moraxella catarrhalis ATCC 25238. The experiment in a line: Disk diffusion. It counts as cell-based. The conditions noted are these: 10 mg/ml, 20 μl, incubated in 5% CO2. In general terms: Agar diffusion results depend on both activity and mobility in agar.
In data set [3] the test system is E. coli NCTC 10418. The experiment in a line: Broth microdilution MIC and MBC, expanded testing range. It is filed as cell-based. The conditions noted are these: Escherichia coli, NCTC10418; MHB, growth-method inoculum, range 1024 to 0.5 μg/ml. The protocol:
(§1) The method used was based on CLSI protocols for broth microdilution testing of these species. As recommended by CLSI, inocula were prepared by direct colony suspension, and the media used were cation-adjusted Mueller Hinton broth (CA-MHB) for Staphylococcus spp. and CA-MHB containing 5% lysed horse blood (CA-MHB+LHB) for Streptococcus spp. Briefly, 24 h blood agar plate (BA) cultures of Staphylococcus aureus strains NCTC 6571, ATCC 29213, ATCC 33592 (MRSA) and NCTC 10442 (MRSA), Staphylococcus epidermidis ATCC 29971, Staphylococcus xylosus ATCC 29971, Streptococcus pneumoniae strains ATCC 49619 and ATCC 6305, and Streptococcus pyogenes strains NCTC 8191 and NCTC 8302 were used to prepare 0.5 McFarland suspensions in saline. Two 640 μg/ml working stocks of TSB007 were prepared from a fresh master stock, one in CA-MHB for testing against the Staphylococcus spp. and the other in CA-MHB+LHB for testing against Streptococcus spp. The working stocks were further diluted 1/10 in these broths for adding to microtitre trays to test MICs of 32, 16, 8, 4, 2, 1, 0.5, 0.25, 0.125 and 0.06 μg/ml.
(§2) The wells of two 96-well microtitre trays (one for Staphylococcus spp. and one for Streptococcus spp.) were filled with 100 μl of the appropriate broth, except for the first column. The last column, a sterility control containing no TSB007 or inoculum, was filled with an additional 100 μl broth. Then 100 μl of the 64 μg/ml TSB007 solution was added to the first two columns, the contents of column 2 was mixed, then 100 μl of this was used in two-fold serial dilutions along the rest of the tray except the last two columns. The final 100 μl was discarded. […] Finally, to the first 11 wells of one row per strain, 100 μl of a 10^−2 dilution (in the appropriate broth) of the 0.5 McFarland suspension was added. The microtitre trays were then incubated at 35° C. for 24 h before the MICs were read visually. Wells were further subcultured (10 μl drop onto BA then incubated at 35° C. for 24 h) and colonies subsequently counted to determine minimum bactericidal concentrations (MBCs). The concentration of the initial inoculum was confirmed on BA by counting colonies from 2×10 μl spots of 10^−5 dilutions of the 0.5 McFarland suspensions. Testing was performed on two separate occasions.
(§3) The method described above, with some modifications, was used to determine the MIC and MBC for S. aureus NCTC 6571 and E. coli NCTC 10418. Concentrations of the compound were previously too low to determine the MBC of this S. aureus strain. Modifications were the use of Mueller-Hinton broth (MHB) instead of CA-MHB, the preparation of bacterial inoculum by the growth method instead of direct colony suspension, and the use of more concentrated working stocks and test concentrations of TSB007. […]

Data set [4] has as its system S. aureus NCTC 6571. The description is as above. It is filed as cell-based. As to conditions: Staphylococcus aureus, NCTC6571; MHB, growth-method inoculum, range 1024 to 0.5 μg/ml. The method, then:
as §1, §2, §3

Data set [5] deals with Micrococcus luteus ATCC 10240. Put plainly: Disk diffusion. As to conditions: 10 mg/ml, 20 μl.
Data set [6] deals with Staphylococcus epidermidis ATCC 12228. The experiment in a line: Disk diffusion. As to conditions: for zone of inhibition at 10000 µg/mL: Staphylococcus epidermidis.

The structures appear in SMILES notation. Converted amounts (≈) assume the structure as drawn. Like-named read-outs stand apart in the source and are kept apart here.

Usually MBC stands for the lowest tested concentration that kills the bacteria rather than only halting them. A higher MBC goes with weaker bactericidal potency. Broadly, the MIC is the lowest concentration that inhibits growth of the organism. A low value points to inhibition by little substance. `O=C(O)c1ccc(/C=C/c2cc(/C=C/c3ccc(C(=O)O)cc3)cc(/C=C/c3ccc(C(=O)O)cc3)c2)cc1` [TSB007]: the “Average (SD) % haemolysis (n = 2)” value is −2.316 (0.695) % in data set [1] (0.5 mg/L), 2.175 (0.099) % in data set [1] (5 mg/L), 2.316 (0.099) % in data set [1] (50 mg/L) and 5.053 (0.595) % in data set [1] (500 mg/L). Besides, the haemolytic activity entry in data set [1] (0.5-500 mg/L) is recorded as “very low”. The “Zone diameters, 24 h TSB007” value in data set [2] (24 h) was found to be 25 trim; in data set [5] (24 h), 26 trim; in data set [6] (10 mg/ml, 20 μl, 24 h), 22 trim. For the same compound, the “Zone diameters, 48 h TSB007” value turned out to be 25 trim in data set [2] (48 h); 26 trim in data set [5] (48 h); 22 trim in data set [6] (10 mg/ml, 20 μl, 48 h). The MBC was over 1020 µg/mL in data set [3] and 128 to 256 µg/mL (≈ 248 to 496 µM) in data set [4]. Besides, the MIC stood at 512 µg/mL (≈ 991 µM) in data set [3] and 2 µg/mL (≈ 3.87 µM) in data set [4]. In addition, the “Zone diameters, Repeat Results” value was determined as 32 trim in data set [5] (repeat) and 20 trim in data set [6] (10 mg/ml, 20 μl, repeat). Besides, the zone of inhibition at 10000 µg/mL in data set [6] (ATCC12228, 24 h, read-out: Zone diameters, 24 h AnO2) was determined as 22 mm; in data set [6] (ATCC12228, 24 h, read-out: Zone diameters, 24 h O2), 18 mm; in data set [6] (ATCC12228, 48 h, read-out: Zone diameters, 48 h AnO2) it was 22 mm; in data set [6] (ATCC12228, 48 h, read-out: Zone diameters, 48 h O2), 18 mm.
